Measured values published in patent US20220233661A1, “METHOD OF DETERMINING ELIGIBILITY OF CANCER PATIENT FOR PEPTIDE VACCINE THERAPY” (priority 2019, published 2022).

How the values were obtained:
[1] = test system: anti-peptide IgG in plasma; experiment: Test Example 4: peptide-specific IgG titer pre and post vaccination, bead-based multiplexed Luminex assay; format: in vivo, human; conditions: for Pre-vaccination IgG Negative (number of patients) / Pre-vaccination IgG Positive (number of patients): cut off 10 FIU; for Post vaccination IgG: number of (positive) patients among vaccinated: positive IgG response; for Pre-vaccination IgG Negative patients: number of 2,588 patients below 10 FIU; for Pre-vaccination IgG Positive patients: number of 2,588 patients with ≥10 FIU; for Post vaccination IgG: (positive) patients: number of vaccinated patients with positive IgG response; for Correlation between immune responses and OS: Negative (mOS): patients with negative post-vaccination IgG response to the peptide; for Correlation between immune responses and OS: Positive (mOS): patients with positive post-vaccination IgG response to the peptide
Method: As described previously, IgG titer specific to the antigen peptides in plasma was measured by bead-based multiplexed Luminex assay (Luminex, Austin, Tex.) before and after vaccination, i.e., at the end of each cycle or at the end of the clinical trial (Non-Patent Literature 4). In brief, 30 mL of peripheral blood was obtained before and after vaccination. Plasma was incubated with 100 μL of peptide-coupled color-coded beads for 2 hours at 25° C. on a plate shaker. After the incubation, the resultant mixture was washed with a vacuum manifold apparatus and incubated with 100 μL of biotinylated goat anti-human IgG (gamma chain-specific; Vector Laboratories, Burlingame, Calif.) for 1 hour at 25° C. on a plate shaker. The plate was then washed, followed by addition of 100 μL of streptavidin-PE (Life Technologies) to each well, and incubation for 30 minutes at 25° C. on a plate shaker. The resultant beads were washed 4 times, followed by addition of 100 μL of Tween-PBS to each well, and detection of fluorescence intensity units (FIU) on the beads using the Luminex system. The cutoff values of anti-peptide IgG were set to 10 FIU in 100-fold diluted samples.
Pre-vaccination peptide-specific IgG titers to 31 peptides were measured using a Luminex system. As a detectable IgG level, 10 FIU was employed as the cut off level, as reported previously (Noguchi M, et al., Cancer Immunol Immunother. 2013 May; 62(5): 919-29; Sasada T, et al., Current Medicinal Chemistry. 21: 2332-2345, 2014; Kibe S, et al., Cancer Immunology Research 2014; 2(12): 1154-62).
Post-vaccination lgG titers were measured at the ends of the first cycle and the second cycle.

cancer patients = experiment: Test Example 4: correlation between vaccination with individual peptides (or peptide sets) and OS, Cox proportional hazards regression; format: in vivo, human; conditions: for HR: Cox proportional hazards regression, OS; for Correlation between immune responses and OS: Negative (mOS) / Correlation between immune responses and OS: Positive (mOS): Table 20, <64% neutrophil and ≥26% lymphocyte; for Correlation between immune responses and OS: Negative (mOS): vaccinated patients with negative IgG response; for Correlation between immune responses and OS: Positive (mOS): vaccinated patients with positive IgG response
Method: The Student's t-test and the chi-square test were used to compare quantitative and categorical variables, respectively. OS was calculated as the time in months from the date of clinical trial enrollment to death or to the date of last contact. Time-to-event endpoints were analyzed using the Kaplan-Meier method, and between-group comparison for OS was conducted using the log-rank test. Clinical efficacy of the individual peptides for OS was evaluated by univariate and multivariate analyses with the Cox proportional hazards regression model, and HR and 95% CI were calculated. All reported p-values were two-sided, and p-values less than 0.05 were considered significant. JMP version 12 or SAS version 9.4 software (SAS Institute Inc., Cary, N.C.) was used to perform all analyses.
Correlation levels of the 31 peptides for OS were evaluated by the Cox proportional hazards regression model.
Similarly, in the 2,085 advanced cancer patients (stage IV+recurrence) and the 503 non-advanced cancer patients (I-III stages) correlation levels of the 31 peptides for OS were evaluated by the Cox proportional hazards regression model. […]

[2] = Table 20, patients showing both <64% neutrophil and ≥26% lymphocyte
[3] = patients showing detectable levels
[4] = patients showing positive responses
[5] = 2,085 advanced cancer patients (stage IV+recurrence)
[6] = Table 18, all 2,588 cases, vaccinated vs non-vaccinated
[7] = Table 18, all 2,588 cases, median OS of patients under PPV containing the peptide
[8] = Table 18, all 2,588 cases, median OS of patients under PPV not containing the peptide
[9] = Table 19, 2,085 advanced cancer patients (stage IV+recurrence)
[10] = Table 19, 2,085 advanced cancer patients (stage IV+recurrence), PPV containing the peptide
[11] = Table 19, 2,085 advanced cancer patients (stage IV+recurrence), PPV not containing the peptide
[12] = Table 21, patients showing both <64% neutrophil and ≥26% lymphocyte
[13] = Table 21, patients showing both <64% neutrophil and ≥26% lymphocyte, PPV containing the peptide
[14] = Table 21, patients showing both <64% neutrophil and ≥26% lymphocyte, PPV not containing the peptide

| Sequence | Post vaccination IgG Median (FIU) [1, 2] | Pre-vaccination IgG Median (FIU) [1, 2] | Pre-vaccination IgG Negative (number of patients) [1, 2] | Pre-vaccination IgG Positive (number of patients) [1, 2] | Post vaccination IgG: number of (positive) patients among vaccinated [1, 2] | Pre-vaccination IgG Negative patients [1] | Pre-vaccination IgG Positive patients [1] | Post vaccination IgG: (positive) patients [1] | Pre-vaccination IgG Median (FIU) [1, 3] | Post vaccination IgG Median (FIU) [1, 4] | Correlation between immune responses and OS: Negative (mOS) [1] | Correlation between immune responses and OS: Positive (mOS) [1] | HR (cancer patients; [6]) | Vaccinate cases (mOS) (cancer patients; [7]) | Non-vaccinate cases (mOS) (cancer patients; [8]) | HR (cancer patients; [9]) | Vaccinate cases (mOS) (cancer patients; [10]) | Non-vaccinate cases (mOS) (cancer patients; [11]) | Correlation between immune responses and OS: Negative (mOS) (cancer patients) | Correlation between immune responses and OS: Positive (mOS) (cancer patients) | other results |
| --- | --- | --- | --- | --- | --- | --- | --- | --- | --- | --- | --- | --- | --- | --- | --- | --- | --- | --- | --- | --- | --- |
| ALVEFEDVL (listed as Homo sapiens) [HNRPL-140] | 7,150 FIU | 37 FIU | 505 | 561 | 103(68) | 1,293 | 1,295 | 200(111) | 39 FIU | 8,576 FIU | 9.8 months | 23.9 months | 0.8 | 200(12.9) M | 850(11.1) M | 0.8 | 162(12.1) M | 700(10.0) M | 10.4 months | 26.2 months | median OS of non-vaccinated cases (cancer patients; [5]): 10 months; median OS of vaccinated cases (cancer patients; [5]): 12.1 months; HR (cancer patients; [12]): 0.8; Vaccinate cases (mOS) (cancer patients; [13]): 103(19.0) M; Non-vaccinate cases (mOS) (cancer patients; [14]): 331(15.6) M; median OS of vaccinated cases (cancer patients; all 2,588 cases, PPV containing the peptide): 12.9 months; median OS of non-vaccinated cases (cancer patients; all 2,588 cases, PPV not containing the peptide): 11.1 months |
| LYAWEPSFL (listed as Homo sapiens) [MRP3-503] | 13,871 FIU | 40 FIU | 885 | 181 | 61(46) | 2,121 | 467 | 133(85) | 37 FIU | 6,401 FIU | 9.3 months | 20.6 months | 0.9 | 133(14.1) M | 1,417(11.9) M | 0.9 | 108(13.4) M | 1138(10.4) M | 12.6 months | 25.1 months | HR (cancer patients; [12]): 1.0; Vaccinate cases (mOS) (cancer patients; [13]): 61(24.3) M; Non-vaccinate cases (mOS) (cancer patients; [14]): 564(18.1) M |
| VYDYNCHVDL (listed as Homo sapiens) [SART3-109] | 9,770 FIU | 30 FIU | 572 | 494 | 192(116) | 1,382 | 1,206 | 474(223) | 31 FIU | 7,875 FIU | 10.3 months | 19.0 months | 1.0 | 474(12.3) M | 1,948(11.5) M | 1.0 | 376(10.6) M | 1566(10.2) M | 17.1 months | 24.1 months | HR (cancer patients; [12]): 1.0; Vaccinate cases (mOS) (cancer patients; [13]): 192(19.8) M; Non-vaccinate cases (mOS) (cancer patients; [14]): 796(18.0) M |
| VIQNLERGYR (listed as Homo sapiens) [Lck-449] | 18,734 FIU | 23 FIU | 475 | 591 | 57(38) | 1,182 | 1,406 | 127(67) | 23 FIU | 18,919 FIU | 6.2 months | 19.5 months | 0.9 | 127(13.7) M | 1,087(10.8) M | 0.8 | 102(13.3) M | 867(9.5) M | 10 months | 27.1 months | HR (cancer patients; [12]): 0.8; Vaccinate cases (mOS) (cancer patients; [13]): 57(18.1) M; Non-vaccinate cases (mOS) (cancer patients; [14]): 450(17.5) M |
| AYDFLYNYL (listed as Homo sapiens) [SART2-161] | 775 FIU | 27 FIU | 699 | 367 | 70(26) | 1,641 | 947 | 195(61) | 29 FIU | 312 FIU | 12.6 months | 20.6 months | 1.0 | 195(12.3) M | 13,552(11.9) M | 0.9 | 156(10.7) M | 1090(10.4) M | 14.4 months | 26.7 months | HR (cancer patients; [12]): 1.1; Vaccinate cases (mOS) (cancer patients; [13]): 70(17.4) M; Non-vaccinate cases (mOS) (cancer patients; [14]): 555(18.4) M |
